Measurements: US20250066370A1, “BICYCLIC TRIAZINE DERIVATIVES FOR THE TREATMENT OF CANCER” (DEUTSCHES KREBSFORSCHUNGSZENTRUM, priority 2022, published 2025)

Key:
[1] = test system: MDA-MB-231, human breast cancer cells; assay: Proliferation assay MDA-MB-231 (crystal violet); format: cell-based; conditions: 96 h, MDA-MB-231 parental cells, 4 days, median, read-out: Prolif-MDA MB-231, IC50 - [mol/l] (median)
Procedure: (§1) Human tumour cells were originally obtained from the American Type Culture Collection (ATCC), or from the Deutsche Sammlung von Mikroorganismen und Zellkulturen (DSMZ, German Collection of Microorganisms and Cell Cultures). Cultivated tumour cells (CAL-120, human breast adenocarcinoma cells, DSMZ ACC-459; MDA-MB-231, human breast cancer cells, ATCC HTB-26) were plated at a density of 4,000 cells/well in a 96-well multitier plate in 200 microL of their respective growth medium supplemented 10% fetal calf serum. After 24 hours, the cells of one plate (zero-point plate) were stained with crystal violet (see below), while the medium of the other plates was supplemented with the test substances in various concentrations (0 micromol/L, as well as in the range of 0.01-10 micromol/L; the final concentration of the solvent dimethyl sulfoxide was adjusted to 0.1%) using a Tecan HP D300 Digital Dispenser. The cells were incubated for 4 days in the presence of test substances. Cell proliferation was determined by staining the cells with crystal violet: the cells were fixed by adding 20 microL/measuring point of an 11% glutaric aldehyde solution for 15 minutes at room temperature. After three washing cycles of the fixed cells with water, the plates were dried at room temperature. The cells were stained by adding 100 microL/measuring point of a 0.1% crystal violet solution (pH 3.0). After three washing cycles of the stained cells with water, the plates were dried at room temperature. The dye was dissolved by adding 100 microL/measuring point of a 10% acetic acid solution. The extinction was determined by photometry at a wavelength of 595 nm. The change of cell number, in percent, was calculated by normalization of the measured values to the extinction values of the zero-point plate (=0%) and the extinction of the untreated (0 μM) cells (=100%). The IC50 values (inhibitory concentration at 50% of maximal effect) were determined by means of a 4 parameter fit.

[2] = test system: CAL-120, human breast adenocarcinoma cells; assay: Proliferation assay CAL-120 (crystal violet); format: cell-based; conditions: 96 h, CAL-120 parental cells, 4 days, median, read-out: Prolif-CAL-120, IC50 - [mol/l] (median)
Procedure: as §1

[3] = test system: MDA-MB-231-CDK12d-res; assay: Proliferation assay CDK12 degrader resistant MDA-MB-231; format: cell-based, human
Text: (§2) CDK12-degrader resistant cells were generated by propagation of CAL-120 human breast adenocarcinoma cells (DSMZ ACC-459) and MDA-MB-231 human breast cancer cells (ATCC HTB-26) in presence of increasing concentrations of the CDK12 degrader compound example 4 from WO 2021/116178. Initial concentrations of example 4 were 2.0E-08 M for CAL-120 cells and 4.6E-08 M for MDA-MB-231 cells, corresponding to ca. 2-fold the IC50 of inhibition of the cells in an proliferation assay. After the treated cells recovered and proliferated again the concentration of compound example 4 was increased to 3-fold IC50.
as §1, with “To determine the inhibitory effect of test compounds on proliferation of CAL-120-CDK12d-res, MDA-MB-231-CDK12d-res the” for “Human tumour”, “cells” for “cells were originally obtained from the American Type Culture Collection (ATCC), or from the Deutsche Sammlung von Mikroorganismen und Zellkulturen (DSMZ, German Collection of Microorganisms and Cell Cultures). Cultivated tumour cells (CAL-120, human breast adenocarcinoma cells, DSMZ ACC-459; MDA-MB-231, human breast cancer cells, ATCC HTB-26)”

[4] = test system: CAL-120-CDK12d-res; assay: Proliferation assay CDK12 degrader resistant CAL-120; format: cell-based, human
Text: as §2
as §1, with “To determine the inhibitory effect of test compounds on proliferation of CAL-120-CDK12d-res, MDA-MB-231-CDK12d-res the” for “Human tumour”, “cells” for “cells were originally obtained from the American Type Culture Collection (ATCC), or from the Deutsche Sammlung von Mikroorganismen und Zellkulturen (DSMZ, German Collection of Microorganisms and Cell Cultures). Cultivated tumour cells (CAL-120, human breast adenocarcinoma cells, DSMZ ACC-459; MDA-MB-231, human breast cancer cells, ATCC HTB-26)”

[5] = molecular target: CDK12 (Homo sapiens (Human), UniProt Q9NYV4); assay: CDK12 nuclear protein level: immunofluorescence/high content analysis in CAL-120 cells; format: cell-based; conditions: 24 h, nuclear CDK12 staining intensity, median, read-out: CDK12 degradation IF, DC50 - [mol/l] (median)
CDK12, sequence (Q9NYV4 whole entry): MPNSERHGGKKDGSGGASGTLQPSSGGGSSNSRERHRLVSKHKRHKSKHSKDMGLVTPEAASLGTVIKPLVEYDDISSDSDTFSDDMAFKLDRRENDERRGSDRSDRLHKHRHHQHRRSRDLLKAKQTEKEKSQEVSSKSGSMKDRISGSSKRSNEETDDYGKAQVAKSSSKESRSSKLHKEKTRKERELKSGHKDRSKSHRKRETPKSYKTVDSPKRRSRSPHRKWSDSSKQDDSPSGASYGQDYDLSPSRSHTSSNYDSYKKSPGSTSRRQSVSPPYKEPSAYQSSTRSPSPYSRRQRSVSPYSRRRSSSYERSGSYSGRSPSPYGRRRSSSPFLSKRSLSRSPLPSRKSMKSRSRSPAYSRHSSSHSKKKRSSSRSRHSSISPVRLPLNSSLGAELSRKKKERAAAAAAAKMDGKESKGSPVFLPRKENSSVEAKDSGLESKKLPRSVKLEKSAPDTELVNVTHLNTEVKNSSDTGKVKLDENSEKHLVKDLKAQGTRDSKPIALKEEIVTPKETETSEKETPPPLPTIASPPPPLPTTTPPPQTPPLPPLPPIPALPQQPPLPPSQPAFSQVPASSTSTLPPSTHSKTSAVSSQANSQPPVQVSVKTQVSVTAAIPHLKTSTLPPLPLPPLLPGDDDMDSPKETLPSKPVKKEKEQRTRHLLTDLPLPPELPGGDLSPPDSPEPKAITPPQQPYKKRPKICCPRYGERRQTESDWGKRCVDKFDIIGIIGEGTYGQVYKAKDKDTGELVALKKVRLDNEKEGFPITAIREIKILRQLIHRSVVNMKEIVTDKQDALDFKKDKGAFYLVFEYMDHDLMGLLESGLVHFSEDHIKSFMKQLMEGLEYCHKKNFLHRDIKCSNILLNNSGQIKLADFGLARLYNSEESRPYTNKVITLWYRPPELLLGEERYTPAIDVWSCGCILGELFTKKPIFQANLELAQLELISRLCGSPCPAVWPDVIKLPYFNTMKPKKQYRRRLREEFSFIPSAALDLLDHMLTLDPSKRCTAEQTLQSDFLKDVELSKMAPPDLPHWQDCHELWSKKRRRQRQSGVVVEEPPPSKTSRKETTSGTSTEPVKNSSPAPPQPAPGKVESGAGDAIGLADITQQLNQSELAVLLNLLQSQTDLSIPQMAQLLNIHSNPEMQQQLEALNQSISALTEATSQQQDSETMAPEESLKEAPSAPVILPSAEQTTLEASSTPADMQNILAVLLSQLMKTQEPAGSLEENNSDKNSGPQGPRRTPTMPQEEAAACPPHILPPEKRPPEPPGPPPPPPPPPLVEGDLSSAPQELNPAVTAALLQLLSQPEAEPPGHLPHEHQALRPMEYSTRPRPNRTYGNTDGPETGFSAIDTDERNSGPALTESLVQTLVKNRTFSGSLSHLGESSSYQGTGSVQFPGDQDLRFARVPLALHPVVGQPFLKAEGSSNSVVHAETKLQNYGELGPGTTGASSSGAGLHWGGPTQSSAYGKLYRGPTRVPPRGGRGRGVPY
CDK12, sequence (O75909 whole entry partner): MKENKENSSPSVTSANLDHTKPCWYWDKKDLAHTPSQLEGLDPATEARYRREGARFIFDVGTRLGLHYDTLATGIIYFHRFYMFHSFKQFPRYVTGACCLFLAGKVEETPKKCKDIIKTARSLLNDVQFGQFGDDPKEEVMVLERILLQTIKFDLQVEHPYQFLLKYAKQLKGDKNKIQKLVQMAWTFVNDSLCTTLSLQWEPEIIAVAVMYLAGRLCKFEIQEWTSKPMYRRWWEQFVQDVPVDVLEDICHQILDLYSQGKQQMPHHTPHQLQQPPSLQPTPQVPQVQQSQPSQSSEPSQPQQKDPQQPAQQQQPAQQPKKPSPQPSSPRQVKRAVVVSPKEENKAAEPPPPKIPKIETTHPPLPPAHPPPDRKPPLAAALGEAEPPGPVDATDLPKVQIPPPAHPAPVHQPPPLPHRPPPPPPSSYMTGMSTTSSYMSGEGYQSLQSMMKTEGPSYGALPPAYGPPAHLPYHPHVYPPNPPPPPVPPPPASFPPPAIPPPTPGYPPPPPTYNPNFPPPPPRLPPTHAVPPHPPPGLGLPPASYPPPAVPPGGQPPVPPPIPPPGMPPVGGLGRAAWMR
Procedure: In the context of the present invention, the term “DC50 CDK12” refers to the DC50 values obtained according to the assay described in this section (7) herein below, i.e. the DC50 values for the degradation of CDK12.
(§3) CAL-120 human breast cancer cells (DSMZ ACC 459) are seeded in 1536-well microtiter plates (800 cells per well) containing 50 nanoL of compounds in Dose-Response. Control wells received DMSO or Example 4. Plates are then incubated for 24 h at 37° C. in an humidified incubator and fixed with 4% PFA for 10 min. Then immunofluorescence (IF) against CDK12 (CellSignalling CDK12 Antibody #11973, rabbit, 1:100 dilution) is performed using standard IF protocols. Cells are then stained with Hoechst 33342 (Life Technologies, H-1399, 0.1 microg/ml) and imaged on an automated confocal microscopy system (e.g. Perkin Elmer Opera Phenix). Nuclear and cytoplasmic intensity as well as the nuclear/cytoplasmic intensity ratio is determined by automated image analysis using custom generated scripts (MetaXpress). Data is then transferred to Genedata Screener software, normalized to DMSO and control and DC50 values (degrading concentration to achieve 50% reduction of nuclear CDK12 staining intensity relative to controls) are reported.

[6] = test system: CYCLIN K; assay: CYCLIN K nuclear protein level: immunofluorescence/high content analysis in CAL-120 cells; format: cell-based, human; conditions: 24 h, nuclear CCNK staining intensity, median, read-out: CYCLIN K degradation IF, DC50 - [mol/l] (median)
Procedure: as §3, with “CYCLIN K (ThermoFisher Scientific CCNK” for “CDK12 (CellSignalling CDK12”, “#PA5-85020,” for “#11973,”, “1:200” for “1:100”, “CCNK” for “CDK12”

[7] = test system: BRCA1 mRNA expression in MDA-MB-231 cells; assay: qRT-PCR assay: inhibition of BRCA1 mRNA expression in MDA-MB-231 cells; format: cell-based; conditions: Homo sapiens, 24 h exposure, BRCA1 normalised to GAPDH, median, read-out: RTqPCR-MDA-MB-231, IC50 [mol/l], BRCA1 (median)
Procedure: 3. qRT-PCR Assay: BRCA1, ATR, MCL1 in MDA-MB-231, CAL-120
Tissue cultured human MDA-MB-231 human breast cancer cells were plated in 500 microL per well at 200,000 cells/well in a 24 well microtiter plate. After 24 h, the cells were exposed continuously for 24 h to test substances (substances were added with Tecan HP D300 Dispenser). RNA was prepared using Qiagen RNeasy MiniKit (#74106), RNA was quantified using a NanoDrop Equipment, and 600 nano grams of RNA was converted to cDNA using a SuperScript VILO kit (Thermofisher #11755050) followed by qPCR amplification. BRCA1 and ATR gene expression was measured by RT-qPCR and normalised to GAPDH housekeeping gene expression. qPCR primer sets have been purchased from Thermo Fisher Scientific/Applied Biosystems: BRCA1, #Hs 01556193; ATR. #Hs 00992123: GAPDH. #Hs 03929097.

Row | SMILES | IC50 [1] | IC50 [2] | IC50 ([3]; Homo sapiens, 96 h, CDK12 degrader resistant MDA-MB-231 cells, 4 days, median, read-out: Prolif-MDA MB-231-CDK12d-res, IC50 - [mol/] (median)) | Ratio (Prolif-MDA MB-231-CDK12d-res IC50 / Prolif-MDA MB-231 IC50) ([3]; resistant versus parental MDA-MB-231 cells) | IC50 ([4]; Homo sapiens, 96 h, CDK12 degrader resistant CAL-120 cells, 4 days, median, read-out: Prolif-CAL-120-CDK12d-res, IC50 - [mol/l] (median)) | Ratio (Prolif-CAL-120-CDK12d-res IC50 / Prolif-CAL-120 IC50) ([4]; resistant versus parental CAL-120 cells) | DC50 [5] | DC50 [6] | IC50 [7]
1 | FC(F)(F)Oc1ccc(-c2nnc(CNc3nc(N4CCOCC4)nc4c(C(F)(F)F)cnn34)[nH]2)cn1 [Example 17, 2-(morpholin-4-yl)-N-({5-[6-(trifluoromethoxy)pyridin-3-yl]-4H-1,2,4-triazol-3-yl}methyl)-8-(trifluoromethyl)pyrazolo[1,5-a][1,3,5]triazin-4-amine] | 112 nM | 88.1 nM | 156 nM | 1.4 | 134 nM | 1.5 | > 1000 nM | > 1000 nM | 
2 | COc1ccc(-c2cnc(CNc3nc(N4CCOCC4)nn4c(C(F)(F)F)cnc34)[nH]2)cc1 [Example 13, N-{[5-(4-methoxyphenyl)-1H-imidazol-2-yl]methyl}-2-(morpholin-4-yl)-7-(trifluoromethyl)imidazo[2,1-f][1,2,4]triazin-4-amine] | 85.9 nM | 29.2 nM |  |  |  |  | 120 nM |  | 57.1 nM
3 | FC(F)(F)c1ccc(-c2nnc(CNc3nc(N4CCOCC4)nc4c(C(F)(F)F)cnn34)[nH]2)cn1 [Example 16, 2-(morpholin-4-yl)-8-(trifluoromethyl)-N-({5-[6-(trifluoromethyl)pyridin-3-yl]-4H-1,2,4-triazol-3-yl}methyl)pyrazolo[1,5-a][1,3,5]triazin-4-amine] | 179 nM | 211 nM |  |  |  |  | > 1000 nM |  | 
